This is an account of results in patent US5807855A, “1-piperazino-1,2-dihydroindene derivatives” (priority 1992, dated 1998).

Entries after “also recorded” stand apart in the source; their conditions may differ. Like-named read-outs stand apart in the source and are kept apart here.

For series [1], the target named is T1, DA D1 receptor (Rattus norvegicus, UniProt P18901). Description: biochemical. It is filed as binding. The note with it: IC50, D1 3H-SCH.
The target in the next series is T2, 5-HT2 receptors (Rattus norvegicus, UniProt P14842).
T2 construct: 5-HT2 receptors in membranes from rat cortex; from tissue; host or cells: membranes from rat cortex
T2 sequence (P14842 whole entry): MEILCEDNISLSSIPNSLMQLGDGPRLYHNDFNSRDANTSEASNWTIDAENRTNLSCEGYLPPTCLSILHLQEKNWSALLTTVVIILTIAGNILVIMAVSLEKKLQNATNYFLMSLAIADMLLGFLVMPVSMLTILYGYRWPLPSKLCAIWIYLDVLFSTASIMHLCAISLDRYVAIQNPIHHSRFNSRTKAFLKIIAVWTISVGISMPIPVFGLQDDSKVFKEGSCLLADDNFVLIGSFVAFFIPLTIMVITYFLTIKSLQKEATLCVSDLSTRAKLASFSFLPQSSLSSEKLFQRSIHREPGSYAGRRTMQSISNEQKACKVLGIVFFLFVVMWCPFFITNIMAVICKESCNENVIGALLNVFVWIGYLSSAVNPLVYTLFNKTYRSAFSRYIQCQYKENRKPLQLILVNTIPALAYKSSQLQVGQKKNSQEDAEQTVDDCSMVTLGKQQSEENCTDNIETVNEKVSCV
The experiment in a line: Inhibition of 3H-ketanserin binding to 5-HT2 receptors in membranes from rat cortex. The note with it: Receptor Binding, IC50, 5-HT2 3H-Ket. Here is the method:
Receptor binding studies.
5-HT2 receptors. Inhibition of ^3 H-ketanserin binding to 5-HT2 receptors in membranes from rat cortex was determined as described by Hyttel, J. Acta. Pharmacol. Toxicol.

For the next series, the target named is T3, DA D2 receptors (Rattus norvegicus, UniProt P61169).
T3 construct: DA D2 receptors in rat striatal membranes; from tissue; host or cells: rat striatal membranes
T3 sequence (P61169 whole entry): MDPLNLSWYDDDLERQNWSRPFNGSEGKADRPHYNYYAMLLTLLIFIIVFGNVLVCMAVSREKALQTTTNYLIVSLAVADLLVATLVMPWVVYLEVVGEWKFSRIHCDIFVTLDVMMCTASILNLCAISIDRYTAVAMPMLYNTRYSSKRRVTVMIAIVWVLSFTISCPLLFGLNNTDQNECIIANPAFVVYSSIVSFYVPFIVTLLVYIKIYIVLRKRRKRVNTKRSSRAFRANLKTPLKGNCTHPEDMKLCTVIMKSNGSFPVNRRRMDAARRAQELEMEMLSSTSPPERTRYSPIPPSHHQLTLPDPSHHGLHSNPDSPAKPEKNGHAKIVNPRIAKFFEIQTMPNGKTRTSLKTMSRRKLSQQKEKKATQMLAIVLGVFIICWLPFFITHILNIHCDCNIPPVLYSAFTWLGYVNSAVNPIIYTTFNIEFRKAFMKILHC
The experiment in a line: Inhibition of 3H-spiperone binding to DA D2 receptors in rat striatal membranes. The note with it: IC50, D2 3H-Spi.

In series [2] the test system is DA uptake. The experiment in a line: Inhibition of DA uptake in vitro. It is filed as biochemical. Here is the method:
Inhibition of DA Uptake in Vitro was determined as described by K. P. B.o slashed.ges.o slashed., J. Med. Chem. 1983, 26, 935-947.

The nature of series [3]: Cataleptogenic effect in rats. The following applies: rat, in vivo, maximum effect 1-6 h after administration, read-out: ED50 in the catalepsy test. The method, then:
Cataleptogenic effect in rats.
Catalepsy was measured every hour 1-6 h after test drug administration on a vertical wire grid and defined as being present after at least 15-simmobility. The maximum effect between 1-6 h after administration was reported. A total of 8-12 animals were used per dose.

For series [4], the target named is T1, DA D1 receptor. The experiment in a line: Antagonism of SK&F 38393-induced circling behavior in rats with unilateral 6-OHDA lesions. It is filed as in vivo. On the set-up: circling behavior in rats with unilateral 6-OHDA lesions; from tissue; host or cells: living rats with unilateral 6-OHDA lesions. The note with it: 2 h. The method, then:
Antagonism of SK&F 38393-induced circling behavior in rats with unilateral 6-OHDA lesions.
This test is a test for the DA D1 receptor antagonistic effect in vivo.
The experiments were performed as described by Arnt, J. and Hyttel, J. J. Neural. Transm. 1986, 67, 225-240. The experiments were done 2-9 months after lesioning when stable contralateral circling response to 2,3,4,5-tetrahydro-7,8-dihydroxy-1-phenyl-1H-3-benzazepine, hydrochloride (SK&F 38393) (4.3 μmol/kg=1.4 mg/kg) were obtained. The test compounds were injected 2 h before administration of SK&F 38393. Antagonistic effect were calculated as percent inhibition of control responses for each rat. Four to eight animals were used per dose.

Series [5] has as its system DA D1 receptor. The following applies: 3H-piflutixol; D2 by 3H-spiperone; Drug. Dev. Res. 1986, 7, 35-47; cited from earlier work.
The test system of another series is D1. The following applies: 3H-SCH 23390; Drug. Dev. Res. 1988, 15, 389-404; cited from earlier work.
Series [6] relates to DA uptake. The note with it: cited from earlier work.
The conditions of series [7]: cited from earlier work; for extrapyramidal side effects (in words): at higher D2 occupancies needed to control psychosis.
For a further series, the system named is 5-HT2. The following applies: cited from earlier work.
The conditions of series [8]: Psychopharmacology 1985, 86, 303-305; cited from earlier work.
The mark [9] stands for this setting: rat striatal membranes, 3H-SCH 23390, read-out: Receptor Binding.
Setting [10] is: rat striatal membranes, 3H-spiperone, read-out: Receptor Binding.

T1 sequence (P18901 whole entry): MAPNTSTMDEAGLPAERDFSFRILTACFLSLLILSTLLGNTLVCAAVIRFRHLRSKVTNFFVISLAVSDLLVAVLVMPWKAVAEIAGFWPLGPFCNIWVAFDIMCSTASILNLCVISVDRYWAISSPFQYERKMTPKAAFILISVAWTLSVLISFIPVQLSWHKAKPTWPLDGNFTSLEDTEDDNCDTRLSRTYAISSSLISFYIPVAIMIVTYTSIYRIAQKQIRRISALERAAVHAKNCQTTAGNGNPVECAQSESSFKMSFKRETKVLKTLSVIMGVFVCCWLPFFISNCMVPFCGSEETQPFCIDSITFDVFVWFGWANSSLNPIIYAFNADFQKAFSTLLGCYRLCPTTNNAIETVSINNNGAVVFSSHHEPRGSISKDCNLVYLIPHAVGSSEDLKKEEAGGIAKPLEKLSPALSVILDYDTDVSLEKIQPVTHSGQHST

In the case of `CN1CCN([C@@H]2C[C@@H](c3ccccc3)c3ccc(Cl)cc32)CC1(C)C` (racemic) [Compound 10, (±)-Trans-4-[6-chloro-3-phenyl-2,3-dihydro-1H-inden-1-yl]-1,2,2-trimethylpiperazine], the IC50 amounted to 1.6 nM at DA D1 receptor [1] (setting [9]), 3.2 nM at 5-HT2 receptors, 20 nM at DA D2 receptors (Receptor Binding) and 15 nM with DA uptake [2].

On to `CN1CCN([C@@H]2C[C@@H](c3ccc(F)cc3)c3ccc(F)cc32)CC1(C)C` (racemic) [Compound 38, (±)-Trans-4-[6-fluoro-3-(4-fluorophenyl)-2,3-dihydro-1H-inden-1-yl]-1,2,2-trimethyl piperazine], for which the IC50 on DA D1 receptor [1] (Receptor Binding) was 0.88 nM; at 5-HT2 receptors it was 3.6 nM; at DA D2 receptors (setting [10]) it was 11 nM; in the series on DA uptake [2] it was 9 nM. In addition, the ED50 in series [3] is more than 68 µmol/kg; on DA D1 receptor [4], 0.5 µmol/kg.

As to `CC1(C)CN([C@@H]2C[C@@H](c3ccc(F)cc3)c3ccc(Cl)cc32)CCN1CCCO` (racemic) [Compound 39, (±)-Trans-4-[6-chloro-3-(4-fluorophenyl)-2,3-dihydro-1H-inden-1-yl]-2,2-dimethyl-1-piperazinepropanol], the IC50 came to 1.8 nM at DA D1 receptor [1] (setting [9]), 3 nM on 5-HT2 receptors and 9.8 nM on DA D2 receptors (setting [10]).

Consider `OCCN1CCN([C@@H]2C[C@@H](c3ccc(F)cc3)c3ccc(C(F)(F)F)cc32)CC1` (racemic) [Tefludazine], for which the “DA D1 receptor affinity (in words)” value in the series on DA D1 receptor [5] was “substantially lower than the D2 affinity”.

For `CC(C)C1CN([C@@H]2C[C@@H](c3ccc(F)cc3)c3ccc(Cl)cc32)CCN1` (relative stereo) [Compound 19, Trans-4-[6-chloro-3-(4-fluorophenyl)-2,3-dihydro-1H-inden-1-yl]-2-(2-propyl)piperazine], the IC50 on DA D1 receptor [1] (setting [9]) was 2.2 nM; at 5-HT2 receptors, 5.6 nM; at DA D2 receptors (setting [10]), 38 nM.

With `CC(C)C1CN([C@@H]2C[C@@H](c3ccc(F)cc3)c3ccc(Cl)cc32)CCN1` (relative stereo) [Compound 20, Trans-4-[6-chloro-3-(4-fluorophenyl)-2,3-dihydro-1H-inden-1-yl]-2-(2-propyl)piperazine], the values for the IC50 at DA D1 receptor [1] (setting [9]), on 5-HT2 receptors and at DA D2 receptors (setting [10]) were 6 nM, 8.8 nM and 130 nM, respectively.

For `CN1CCN([C@@H]2C[C@@H](c3ccc(F)cc3)c3ccc(Cl)cc32)CC1(C)C` (single isomer, unassigned) [+2, (+) Trans-4-[6-chloro-3-(4-fluorophenyl)-2,3-dihydro-1H-inden-1-yl]-1,2,2-trimethylpiperazine], the IC50 on 5-HT2 receptors was 2000 nM; in the series with DA uptake [2], 16 nM.

With `Fc1ccc(C2CC(N3CCN4CCCCC4C3)c3cc(F)ccc32)cc1` (stereo not shown) [Compound 33, 2-[6-fluoro-3-(4-fluorophenyl)-2,3-dihydro-1H-inden-1-yl]-octahydropyrido[1,2-a]-pyrazine], the IC50 at DA D1 receptor [1] (setting [9]) came out at 5.8 nM; at 5-HT2 receptors it was 28 nM; at DA D2 receptors (setting [10]) it was 320 nM.

As to `O=C1NCCN1CCN1CCN([C@@H]2C[C@@H](c3ccc(F)cc3)c3ccccc32)CC1` [Irindalone, reference compound], the IC50 on DA D1 receptor [1] (read-out: Receptor Binding) is 890 nM. For the same compound, the “D1 affinity (in words)” value with D1 is “even lower than the D2 affinity”.

Turning to `COC(=O)[C@H]1[C@@H](OC(=O)c2ccccc2)C[C@@H]2CC[C@H]1N2C` [cocaine], in the series with DA uptake [6], the “DA uptake inhibition (in words)” value is “inhibitor of DA uptake”.

Consider `O=C(CCCN1CCC(O)(c2ccc(Cl)cc2)CC1)c1ccc(F)cc1` [haloperidol], for which the “extrapyramidal side effects (in words)” value in [7] is listed as “accompanied by extrapyramidal side effects”.

For `OCCN1CCN(CCCN2c3ccccc3Sc3ccc(Cl)cc32)CC1` [perphenazine], the “extrapyramidal side effects (in words)” value in series [7] is recorded as “accompanied by extrapyramidal side effects”.

As for `Cc1nc2sccn2c(=O)c1CCN1CCC(=C(c2ccc(F)cc2)c2ccc(F)cc2)CC1` [ritanserin], in series [7] (patients), the “clinical effect (in words)” value was “shown to be an antidepressant and to improve depressive symptoms of schizophrenia; also recorded: improve the quality of sleep; also recorded: found to relieve neuroleptic-induced parkinsonism”. Moreover, the “5-HT2 antagonism (in words)” value with 5-HT2 was “selective 5-HT2 antagonist”. Also, the “effect in animal test (in words)” value in [8] is “exert effects in an animal test reminiscent of anxiolytic activity”.

On to `Cc1nc2n(c(=O)c1CCN1CCC(C(=O)c3ccc(F)cc3)CC1)CCS2` [setoperone], for which, in the series with 5-HT2, the “5-HT2 antagonism (in words)” value was 5-HT2 and moderate dopamine receptor antagonist.

Usually ED50 stands for the midpoint of the dose-response relation.
